Laboratory results published in patent publication US12636368B2, “Ionizable lipids for nucleic acid delivery” (Global Life Sciences Solutions Canada ULC, priority 2019, dated 2026).

Assays:
C56BL/6 mice = test: hEPO expression in mice after i.v. EPO mRNA LNPs; assay type: in vivo; conditions: for protein expression in vivo compared with MC3: summary, Table 7 and Figures; for hEPO protein level compared with MC3: FIG. 9, 5-moU EPO mRNA, LM02, N/P 6, 0.5 mg/Kg, 6 h
Description: C56BL/6 mice were administered i.v doses of 0.5, 1 or 3 mg/Kg of recombinant human EPO-encoded mRNA LNPs containing ionizable lipids MC3, PNI 76, PNI 121 and PNI 127 using the LM02 composition at N/P 6; hEPO protein was measured using Quantikine® IVD® ELISA Human Erythropoietin Immunoassay protocol. Results for the 0.5 mg/Kg dosage are shown in the scatter plot of FIG. 7. Results for the 1 and 3 mg/Kg doses are shown in FIG. 8 as scatter plots of hEPO expression levels at 6 h (left) and 24 h (right).
In another study, 5-moU EPO mRNA encapsulated in LM02 LNP at an N/P ratio of 6 and a dose of 0.5 mg/Kg comprising a variety of […] ionizable lipids (PNI 336, PNI 534, PNI 535, PNI 342, PNI 321, PNI 532, PNI 538, PNI 541, PNI 325, PNI 328, PNI 329, PNI 539, PNI 540, PNI 127); along with MC3 as a control, were administered. hEPO protein was measured using ProteinSimple® Ella platform, and the rhEPO microfluidic cartridges provided by the manufacturer.
Blood from mice treated with hEPO mRNA LNP was analyzed using an automated ELISA platform “ELLA”, using Simplex™ antibody panel cartridges. Human-specific EPO and mouse-specific IL-5, IL-6, TNF-α, and IFN-γ were measured (reagents from Bio-techne). Briefly, 50 μL of sample reagent (diluted biological sample, quality control, or calibration point sample) were aliquoted into each sample inlet, and 1 mL of wash buffer was added into corresponding inlets on the cartridge. All immunoassay operations (including prime system, flow samples and split them into channels, sample incubation, wash, rehydrate and flow secondary antibody, wash, rehydrate and flow streptavidin dye conjugate, incubate, wash, scan) were processed automatically. Raw signal levels (relative fluorescence units, RFUs), mean signal values, standard deviation, and coefficient of variance (CV) for each glass nanoReactor (GNR) value are provided. RFU values are automatically backfit by the ELLA to produce an analyte concentration per analyte/sample using the manufacturer given calibration methodology.
Reagents were acquired from Quantikine, Minneapolis, MN. The assay was performed as directed on the Quantikine® IVD® ELISA Human Erythropoietin Immunoassay protocol REF DEP00 Package Insert. Briefly; Sera samples of 6 h, and/or 24 h post intravenous administration of 0.5, 1 or 3 mg/kg dose of EPO-encoded mRNA were analyzed for EPO expression analysis, and expressed as mIU/mL. To an EPO antibody pre-coated 96-well microplate, provided by the manufacturer, standards, appropriately diluted sera, and the Horseradish peroxidase (HRP)-conjugated rabbit anti-EPO polyclonal antibody and TMB (Tetramethylbenzidine) as the substrate were added and incubated for 20 minutes. Stop solution (Sulfuric Acid) was added to the wells and the plate was read at 450 nm and the concentration of EPO was calculated. The amount of colour generated is directly proportional to the amount of the conjugate bound to EPO antibody, which in turn is directly proportional to the amount of EPO in the specimen or standard. A standard curve was generated by plotting absorbance versus concentration of provided standards. Quantikine® Human Serum Controls (CEP 01, CEP 03) were used for internal controls.

human T cells = test: eGFP ELISA after eGFP mRNA LNP treatment of human T cells; assay type: cell-based; conditions: FIG. 3; CT10, N/P 10, 10 days post-activation, 48 hours
Description: Reagents were acquired from Abcam, Cambridge, UK unless otherwise stated. […] The assay was performed as directed by the eGFP SimpleStep ELISA® Kit protocol. Briefly; frozen human T cells, previously isolated from fresh human whole blood using a negative selection protocol, were thawed and activated using a triple activator. […] After 48 hours of treatment with mRNA LNPs the T cells were harvested and lysed for total eGFP content.
In order to expose the isolated and activated T cells (Day 0) to the formulated mRNA, 2 ug of CleanCap™ eGFP (Trilink Biotechnologies, San Diego, CA) mRNA-containing LNP was added to 500,000 T cells in 1 mL of complete T cell media, with 1 ug/mL of Recombinant Human ApoE4 (“ApoE”) (Peprotech Inc., Montreal, Canada).
Frozen human T cells, previously isolated from fresh human whole blood using a negative selection protocol, were thawed and activated using a triple activator. At 10 days post-activation, T cells were dosed with CT10 mRNA LNPs LNP comprising DLin-MC3-DMA, PNI 76, PNI 119, PNI 120, PNI 121, and PNI 122 encoding eGFP at 2 pg mRNA per 500,000 cells and N/P 10. Protein expression was measured after 48 hours by eGFP ELISA.

[1] = tested on: isolated primary human T cells; test: CD19 CAR expression in primary human T cells by mRNA-LNPs; assay type: cell-based; conditions: FIG. 11; CT10, N/P 8, 48 h
Description: MRNA containing IL with CT10 composition at N/P 8 was assayed after in vitro exposure. The CAR vector pcDNA3.1 anti-CD19-h(BB Lambda)-EGFP-2nd-CAR (T7 Mut) 7661 bp was purchased from Creative BioLabs, NY, USA.
T cells were isolated from whole blood using a negative isolation procedure and T cell activation, and expansion was carried out by triple activation in ImmunoCult™ Human T Cell Expansion Media as described supra.

| Structure (SMILES) | protein expression in vivo compared with MC3 (C56BL/6 mice) | eGFP expression by eGFP ELISA compared with MC3 (human T cells) | hEPO protein level compared with MC3 (C56BL/6 mice) | CD19 CAR expression compared with PBS [1] |
| --- | --- | --- | --- | --- |
| CCCCC/C=C\C/C=C\CCCCCCCC(=O)O[C@@H]1[C@@H](OC(=O)CCCCCCC/C=C\C/C=C\CCCCC)CO[C@@H]1COC(=O)CCCN(C)C (racemic) [PNI 121] | equivalent to MC3 | greater than that of MC3 | – | – |
| CCCCC/C=C\C/C=C\CCCCCCCC(=O)O[C@@H]1[C@@H](OC(=O)CCCCCCC/C=C\C/C=C\CCCCC)CO[C@@H]1COC(=O)C1(C)CCN(C)C1 (mixture of isomers) [PNI 329] | equivalent to MC3 | – | compare well to MC3 | greater than PBS |
| CCCCC/C=C\C/C=C\CCCCCCCC(=O)O[C@@H]1[C@@H](OC(=O)CCCCCCC/C=C\C/C=C\CCCCC)CO[C@@H]1COC(=O)CCCN1CCCC1 (racemic) [PNI 539] | – | – | compare well to MC3 | – |
| CCCCC/C=C\C/C=C\CCCCCCCC(=O)O[C@@H]1[C@@H](OC(=O)CCCCCCC/C=C\C/C=C\CCCCC)CO[C@@H]1COC(=O)C1CCN(C)C1 (mixture of isomers) [PNI 328] | equivalent to MC3 | – | compare well to MC3 | greater than PBS |
